Test results from US20230118142A1, “AGENTS FOR USE IN THE TREATMENT OF TISSUE DAMAGE” (UCL BUSINESS LTD, priority 2020, published 2023).

How the values were obtained:
[1] = target: T1, CRP (Homo sapiens, UniProt P02741); experiment: Immobilised phosphocholine plate assay (125I-CRP binding); set-up: The final concentrations were 0.73 μM native pentameric CRP; from tissue; details: read-out: IC50 for inhibition of 125I-CRP binding to immobilised phosphocholine
T1 sequence (P02741 19-224): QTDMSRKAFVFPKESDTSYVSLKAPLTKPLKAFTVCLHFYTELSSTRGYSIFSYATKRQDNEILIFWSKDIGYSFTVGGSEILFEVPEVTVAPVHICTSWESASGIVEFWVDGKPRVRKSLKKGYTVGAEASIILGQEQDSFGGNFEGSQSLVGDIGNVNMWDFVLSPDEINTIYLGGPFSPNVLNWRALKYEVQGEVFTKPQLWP
Description: (i) Phosphocholine was immobilised on Greiner NHS-activated microtitre plates by incubation with 4-aminophenyl-1-phosphocholine. Remaining active sites were blocked by incubation with 4% w/v BSA in TC buffer (TCB).
(ii) Human CRP at 1 μg/ml in TC buffer was spiked with ^125I-labelled CRP to provide 10^6 cpm/ml.
(iii) Compounds were prepared from up to 10 mM stock solutions by dilution in TC buffer to 0.5 mM (labelled S1). Serial dilutions were prepared by diluting 100 μl ligand solution with 200 μl TC buffer (S2-S10). A ligand-free control was also used (SO, TC only).
(iv) A 100 μl volume of CRP solution was incubated with 10 μl of each compound (S1-S10, SO) for 1 h at room temperature without stirring, to provide final ligand concentrations across the range 45.5 μM-6.9 nM with a ligand:CRP monomer molar ratio of 1151-0.06. In some cases, single fixed ligand concentrations were also assayed in comparison with PC.
(v) A 100 μl volume of each CRP-ligand mixture was added to the plate wells and incubated for 2 h at room temperature. Solutions were then discarded and the plates washed with TCB buffer. Bound radioactivity was measured (1 min counts) using a gamma counter (Perkin Elmer Wizard 2470).
(vi) Data were plotted with Sigmaplot v14 software using the 4-parameter logistic curve y=min+(max−min)/(1+(x/EC50)^−Hill slope) to calculate IC50.

[2] = target: T1, CRP; experiment: In vivo clearance of preformed CRP/ligand complexes in mice; set-up: from tissue; details: complexes formed in vitro, injected intravenously
Description: (i) CRP at 1 mg/ml in azide-free TC buffer (containing, in some experiments, ˜10^6 cpm/ml of ^125I-CRP) was incubated with a 5-fold molar excess of ligand. A control (ligand-free) sample was also prepared. Cross linking of CRP was confirmed by SEC in TC buffer of a small sample of complex.
(ii) Two groups of eight wild-type C57BL/6 mice (male; 23-27 weeks old) were used.
The complex or control (200 μl, 200 μg CRP) was injected into the tail vein of each mouse. A single timed collection of blood was taken from the tail vain of each mouse; a second terminal sample was also collected. This yielded 4 samples each at 30, 60, 120 and 180 min for control and treated groups.
(iii) Blood samples were weighed and CRP measured in the Roche assay and, in some cases by electroimmunoassay (4, 13). ^125I-CRP was measured by gamma counting (Perkin Elmer Wizard; protocol #1).
Complexes were prepared in vitro using ^125I-labelled CRP and an excess of ligand, and the mixture was then injected intravenously into mice. Clearance of CRP was monitored by counting of the ^125I-CRP tracer and stable CRP-ligand complexes were detected by lack of CRP detection in the Roche assay of the plasma samples. The formation of CRP/ligand complexes was confirmed by size exclusion chromatography before use in each in vivo experiment.

[3] = target: T1, CRP; experiment: Size exclusion chromatography of CRP/ligand cross linking; type: binding; set-up: The final concentrations were 0.73 μM native pentameric CRP; from tissue
[4] = target: T1, CRP; experiment: In vivo clearance of CRP/ligand complexes generated in vivo in mice; set-up: The final concentrations were 0.73 μM native pentameric CRP; from tissue; details: i.v. bolus 18 h after s.c. CRP (1 mg)
Description: (i) Two groups of 8 wild-type C57BL/6 mice (male; 23-27 weeks old) were used: group 1 (control) and group 2 (treated).
(ii) Both groups of animals were given 200 μl of human CRP (5 mg/ml in azide-free TC buffer) subcutaneously on day 1.
(iii) On day 2 (+18 h), control animals were given a 200 μl intravenous bolus of TC buffer. Treated animals were given a 200 μl iv bolus of ligand (prepared at 5 mg/ml in TC buffer).
(iv) One timed blood sample and a terminal blood sample were collected from each mouse into heparinised tubes and weighed. This generated data in quadruplicate at 4 time points, normally 30, 60, 120 and 360 minutes.
(v) ^125I radiolabel was measured (Perkin Elmer Wizard; protocol #1) in whole blood to quantify total CRP. In some cases, electroimmunoassay as above was also used to determine total CRP concentration.
(vi) Plasma was prepared and free CRP determined by Roche immunoassay.
Subcutaneous injection of human CRP provided circulating CRP concentrations with which to test for effects of our ligands in vivo. (Table 4).

O=P(O)(OCCCCCCCCOP(=O)(O)O[C@@H]1CN2CCC1CC2)O[C@@H]1CN2CCC1CC2 [Pk-023, [(3S)-1-azabicyclo[2.2.2]octan-3-yloxy]({[8-({[(3S)-1-azabicyclo[2.2.2]octan-3-yloxy](hydroxy)phosphoryl}oxy)octyl]oxy})phosphinic acid]
IC50 [1]: 150 nM | Time Roche CRP value suppressed (persistence of preformed complex in circulation) [2]: suppressed at 15 min but was had returned to control value at 60 min | Stable to rechromatography ([3]; CRP/ligand complex re-chromatographed in absence of free ligand): remained intact and Yes | CRP elution volume from Superdex 200 after pre-incubation with ligand ([3]; native CRP pentamer elutes at 13.9 ml): 12.6 mL | Effect on detection of circulating CRP in the Roche assay [4]: the same as BPC8
